Data: patent publication US20250140406A1, “CLASSIFYING TUMORS AND PREDICTING RESPONSIVENESS” (Oncocyte Corporation, priority 2022, published 2025)
Where two headings read alike, the source gives them in different places.

Legend:
[1] = system: cancer cell lines classified IM, MSL, M; assay: PRISM screen compound sensitivity correlated with IM, MSL and M subtype of cell lines (101 gene signature); format: cell-based
[2] = system: cancer cell lines, DetermaIO classes; assay: Association of PRISM compound sensitivity with DetermaIO (DTIO) cell line classes; format: cell-based
[3] = correlation of PRISM compound sensitivity with IM subtype correlation, test cell set (188 cell lines)
[4] = correlation of PRISM compound sensitivity with M subtype correlation, test cell set (188 cell lines)
[5] = correlation of PRISM compound sensitivity with MSL subtype correlation, test cell set (188 cell lines)
[6] = subtype (IM, MSL or M) assigned to the compound by negative correlation of PRISM sensitivity with subtype, training cell set (371 cell lines), 101 gene signature
[7] = correlation of PRISM compound sensitivity with DTIO (DetermaIO), test cell set (188 cell lines)
[8] = correlation of PRISM compound sensitivity with DTIO (DetermaIO), training cell set (371 cell lines)
[9] = correlation of PRISM compound sensitivity with DTIO, test cell set
[10] = correlation of PRISM compound sensitivity with DTIO, training cell set
[11] = classification of association of compound sensitivity with IM, MSL and M cell line classes, training data set
[12] = association of compound sensitivity with DetermaIO classes, test data set
[13] = association of compound sensitivity with DetermaIO classes, training data set
[14] = correlation of PRISM compound sensitivity with IM subtype correlation, test cell set
[15] = correlation of PRISM compound sensitivity with M subtype correlation, test cell set
[16] = correlation of PRISM compound sensitivity with MSL subtype correlation, test cell set
[17] = subtype (IM, MSL or M) with which compound sensitivity is negatively correlated, training cell set (371 cell lines), 101 gene signature
[18] = correlation of PRISM compound sensitivity with DTIO, test cell set (188 cell lines)
[19] = correlation of PRISM compound sensitivity with DTIO, training cell set (371 cell lines)

CN(C[C@@H]1COCCO1)S(=O)(=O)Nc1ccc2ccc3ncc(-c4cnn(C)c4)cc3c(=O)c2c1 [MK-2461]
IM Corr test [1, 3]: 0.05424 | M Corr test [1, 4]: −0.1288 | MSL Corr test [1, 5]: −0.01237 | TNBCType train [1, 6]: MSL | DTIO Corr test [2, 7]: −0.00757 | DTIO Corr train [2, 8]: −0.03035

C[C@@H](Oc1ccc2[nH]nc(/C=C/c3cnn(CCO)c3)c2c1)c1c(Cl)cncc1Cl [LY2874455]
IM Corr test [1, 3]: −0.01933 | M Corr test [1, 4]: −0.0758 | MSL Corr test [1, 5]: −0.1021 | DTIO Corr test [2, 9]: −0.0838 | DTIO Corr train [2, 10]: −0.1449

COc1cc2nccc(Oc3ccc(NC(=O)NC4CC4)c(Cl)c3)c2cc1C(N)=O [K39974922]
TNBCType train [1, 11]: MSL | DTIO Corr test [2, 12]: 0.002695 | DTIO Corr train [2, 13]: −0.03256

Cc1ccc(C[N+](C)(C)C)o1.[I-] [5-methylfurmethiodide]
IM Corr test [1, 14]: −0.09845 | M Corr test [1, 15]: 0.06783 | MSL Corr test [1, 16]: 0.0844 | DTIO Corr test [2, 9]: −0.01347 | DTIO Corr train [2, 10]: −0.1413

O=c1[nH]ccc2cc(OC3CCNCC3)ccc12 [SAR407899]
IM Corr test [1, 3]: 0.003595 | M Corr test [1, 4]: −0.1052 | MSL Corr test [1, 5]: −0.2277 | TNBCType train [1, 6]: MSL | DTIO Corr test [2, 7]: −0.00558 | DTIO Corr train [2, 8]: 0.07673

CC(C)=CCC[C@](C)(O[C@@H]1O[C@H](CO)[C@@H](O)[C@H](O)[C@H]1O)[C@H]1CC[C@]2(C)[C@@H]1[C@H](O)C[C@@H]1[C@@]3(C)CC[C@H](O[C@@H]4O[C@H](CO)[C@@H](O)[C@H](O)[C@H]4O[C@@H]4O[C@H](CO)[C@@H](O)[C@H](O)[C@H]4O)C(C)(C)[C@@H]3CC[C@]12C [ginsenoside-rd]
IM Corr test [1]: −0.05744 | M Corr test [1]: −0.00784 | MSL Corr test [1]: −0.02352 | TNBCType train [1, 17]: MSL | DTIO Corr test [2]: −0.0392 | DTIO Corr train [2]: −0.02011

Cc1ccc(CNc2ncnc3ccc(-c4ccc(CO)o4)cc23)o1 [ML167]
IM Corr test [1, 3]: −0.07672 | M Corr test [1, 4]: 0.05836 | MSL Corr test [1, 5]: 0.01781 | DTIO Corr test [2, 7]: −0.03284 | DTIO Corr train [2, 8]: −0.07536

CCCN(CCC)CCc1ccc(OC)c(OCCc2ccccc2)c1 [NE-100]
IM Corr test [1, 3]: 0.02328 | M Corr test [1, 4]: −0.05032 | MSL Corr test [1, 5]: −0.07257 | TNBCType train [1, 17]: MSL | DTIO Corr test [2, 9]: 0.02588 | DTIO Corr train [2, 10]: 0.0932

CCCC[C@H](NC(C)=O)C(=O)N[C@H]1CC(=O)NCCCC[C@@H](C(=O)O)NC(=O)[C@H](Cc2c[nH]c3ccccc23)NC(=O)[C@H](CCCN=C(N)N)NC(=O)[C@@H](Cc2ccccc2)NC(=O)[C@H](Cc2cnc[nH]2)NC1=O [bremelanotide]
IM Corr test [1, 3]: −0.04735 | M Corr test [1, 4]: 0.07264 | MSL Corr test [1, 5]: −0.04913 | DTIO Corr test [2, 9]: −0.06366 | DTIO Corr train [2, 10]: −0.07952

C[C@H]1Oc2cc(cnc2N)-c2c(nn(C)c2C#N)CN(C)C(=O)c2ccc(F)cc21 [PF-06463922]
IM Corr test [1, 3]: −0.1219 | M Corr test [1, 4]: −0.02078 | MSL Corr test [1, 5]: −0.05668 | TNBCType train [1, 17]: MSL | DTIO Corr test [2, 9]: −0.00728 | DTIO Corr train [2, 10]: −0.07689

Cc1cccc(NC(=O)N[C@@H]2N=C(c3ccccc3)c3ccccc3N(CC(=O)c3ccccc3C)C2=O)c1 [YM022]
IM Corr test [1, 3]: −0.00497 | M Corr test [1, 4]: −0.05702 | MSL Corr test [1, 5]: −0.08788 | DTIO Corr test [2, 9]: −0.00858 | DTIO Corr train [2, 10]: 0.03884

O=[N+]([O-])c1ccc([As](=O)(O)O)cc1 [nitarsone]
IM Corr test [1, 3]: −0.01836 | M Corr test [1, 4]: 0.02346 | MSL Corr test [1, 5]: −0.02358 | TNBCType train [1, 6]: MSL | DTIO Corr test [2, 7]: −0.04129 | DTIO Corr train [2, 8]: 0.03389

CC(=O)OC[C@]12CCC(C)=C[C@H]1O[C@@H]1[C@H](O)[C@@H](OC(C)=O)[C@@]2(C)[C@]12CO2 [anguidine]
IM Corr test [1]: −0.1066 | M Corr test [1]: 0.09713 | MSL Corr test [1]: 0.2083 | DTIO Corr test [2]: −0.124 | DTIO Corr train [2]: −0.1638

NC(=O)c1cccc(-c2cc(Nc3ccc(OC(F)(F)F)cc3)ncn2)c1 [GNF-2]
IM Corr test [1, 3]: −0.03304 | M Corr test [1, 4]: −0.07177 | MSL Corr test [1, 5]: −0.05938 | DTIO Corr test [2, 18]: −0.02831 | DTIO Corr train [2, 19]: −0.02935

Cc1c(-c2ccnn2C)cc(C(=O)NCc2ccc(S(C)(=O)=O)cn2)c(=O)n1-c1cccc(C(F)(F)F)c1 [AZD9668]
IM Corr test [1, 14]: 0.06774 | M Corr test [1, 15]: −0.1139 | MSL Corr test [1, 16]: 0.009005 | DTIO Corr test [2, 9]: −0.00254 | DTIO Corr train [2, 10]: 0.06934

C[C@H](C(=O)O)c1ccc(-c2ccccc2)c(F)c1 [flurbiprofen-(S)-(+)]
IM Corr test [1, 3]: −0.0194 | M Corr test [1, 4]: 0.01889 | MSL Corr test [1, 5]: 0.02942 | DTIO Corr test [2, 7]: −0.0319 | DTIO Corr train [2, 8]: −0.04195

CCOC(=O)c1c(C)n(C)c2ccc(O)cc12 [mecarbinate]
IM Corr test [1, 14]: −0.08712 | M Corr test [1, 15]: 0.04238 | MSL Corr test [1, 16]: −0.08851 | DTIO Corr test [2, 9]: −0.09259 | DTIO Corr train [2, 10]: −0.07862

COc1cc(C[C@@H]2NCCc3cc(O)c(O)cc32)cc(OC)c1OC [trimethoquinol]
IM Corr test [1, 3]: −0.06802 | M Corr test [1, 4]: −0.00108 | MSL Corr test [1, 5]: −0.05303 | TNBCType train [1, 17]: MSL | DTIO Corr test [2, 9]: −0.05537 | DTIO Corr train [2, 10]: −0.0983

CC(=O)NCC(=O)N1[C@@H]2CC[C@H]1c1ccc(Nc3ncc(C(F)(F)F)c(NC4CCC4)n3)cc12 [PF-03814735]
IM Corr test [1, 3]: 0.01597 | M Corr test [1, 4]: −0.07539 | MSL Corr test [1, 5]: −0.04366 | TNBCType train [1, 6]: MSL | DTIO Corr test [2, 7]: −0.05974 | DTIO Corr train [2, 8]: −0.01193

N=C(N)NC(=N)Nc1cccc(Cl)c1 [m-Chlorophenylbiguanide]
IM Corr test [1, 14]: −0.148 | M Corr test [1, 15]: 0.08655 | MSL Corr test [1, 16]: 0.1129 | DTIO Corr test [2, 9]: −0.0968 | DTIO Corr train [2, 10]: −0.09639

CNC(=O)CN1CCC(Oc2cc3c(Nc4cccc(Cl)c4F)ncnc3cc2OC)CC1 [AZD8931]
IM Corr test [1, 3]: −0.09307 | M Corr test [1, 4]: 0.2208 | MSL Corr test [1, 5]: 0.4034 | DTIO Corr test [2, 18]: 0.04159 | DTIO Corr train [2, 19]: −0.08735

Cl.NC1CCN(c2cccc(Cl)n2)CC1 [SR-57227A]
IM Corr test [1, 3]: −0.02879 | M Corr test [1, 4]: −0.08168 | MSL Corr test [1, 5]: −0.00449 | DTIO Corr test [2, 9]: 0.01635 | DTIO Corr train [2, 10]: −0.1048

C/C=C1/[C@H](O[C@@H]2O[C@H](CO)[C@@H](O)[C@H](O)[C@H]2O)OC=C(C(=O)OC)[C@H]1CC(=O)OCCc1ccc(O)c(O)c1 [A00842753]
TNBCType test ([1]; classification of association of compound sensitivity with IM, MSL and M cell line classes, test data set): MSL | TNBCType train [1, 11]: MSL | DTIO Corr test [2, 12]: 0.02172 | DTIO Corr train [2, 13]: −0.00213

CCCCCOc1c(OC)ccc2cc(C(=O)NCc3ccc4c(c3)OCO4)c(=O)[nH]c12 [JTE-907]
IM Corr test [1, 3]: −0.05167 | M Corr test [1, 4]: 0.08725 | MSL Corr test [1, 5]: −0.01924 | DTIO Corr test [2, 7]: −0.04389 | DTIO Corr train [2, 8]: −0.131

CC(C)=CCC[C@](C)(O)[C@H]1CC[C@]2(C)[C@@H]1[C@H](O)C[C@@H]1[C@@]3(C)CC[C@H](O[C@@H]4O[C@H](CO)[C@@H](O)[C@H](O)[C@H]4O[C@@H]4O[C@H](CO)[C@@H](O)[C@H](O)[C@H]4O)C(C)(C)[C@@H]3CC[C@]12C [ginsenoside-rg3]
IM Corr test [1, 3]: 0.007852 | M Corr test [1, 4]: −0.05841 | MSL Corr test [1, 5]: −0.02955 | DTIO Corr test [2, 9]: −0.00056 | DTIO Corr train [2, 10]: 0.0566
